Measurements taken from patent EP0880966A1, “THIAMINE DISULFIDES AND MEDICINES CONTAINING THE SAME AS THE ACTIVE INGREDIENT” (NISSUI PHARMACEUTICAL CO., LTD., priority 1996, dated 1998).
Read-outs that look alike come from different tables or passages of the source.

Tested on: CEM/LAV-1
Settings: for TCID50/ml / Inhibition rate (%): CEM/LAV-1 cells cultured 96 hours; for TCID50/ml: titer by 72-hour culture on MT-4 cells, control 4 x 10^5; for Inhibition rate (%): versus control without agent
Procedure: A test agent was added at predetermined concentrations to cells (2 x 10^5 cells/ml, 10 ml) persistently infected with HIV in a logarithmic growth phase to culture the cells for 96 hours. The number of viable cells and the number of killed cells were counted every 24 hours by a trypan blue dye exclusion test to determine the cytotoxic effect of the test agent on the cells. A viral infectious titer (TCID50/ml) in each of the culture solutions incubated for 96 hours was determined by 72-hour culture using, as an index, the giant cell formation of MT-4 cells. In a control group, the cells were cultured in a medium free of any agent. An anti-HIV activity (inhibition %) was determined in accordance with the following equation: Anti-HIV activity (inhibition %) =(TC)/(TC)x 100 [formula]

For `CCCCCCCCCCCCCC(=O)OCC/C(SS/C(CCOC(=O)CCCCCCCCCCCCC)=C(/C)N(C=O)Cc1cnc(C)nc1N)=C(\C)N(C=O)Cc1cnc(C)nc1N` [compound (1), thiamine disulfide dimyristate], the inhibitory effect (CEM/LAV-1 cells, concentration of from 50 to 125 µm) was ~100%, the TCID50/ml (Invention compound 50 µM) was 8 x 10^2 TCID50/ml and the “Inhibition rate (%)” value (Invention compound 50 µM) was 99.5%. The TCID50/ml (Invention compound 125 µM) was 8 x 10^2 TCID50/ml and the “Inhibition rate (%)” value (Invention compound 125 µM) was 99.5%.
